From patent publication US20230372318A1, “METHODS FOR TREATING A SUBJECT HAVING MULTIPLE SYSTEM ATROPHY” (Theravance Biopharma R&D IP, LLC, priority 2022, published 2023)

Test system: subjects with primary autonomic failures (MSA, PD, or PAF) and symptomatic nOH
Experiment: Phase 3 22-week randomized withdrawal study in symptomatic nOH (Example 7)
Assay type: in vivo, human
Parameters: OHSA composite score, LS Mean / OHSA composite score, Mean / OHSA composite score, Median / OHSA composite score, LS Mean Difference / OHDAS item 1 (standing for a short time) score, Mean / OHDAS item 1 (standing for a short time) score, Median / OHDAS item 1 (standing for a short time) score, LS Mean / OHDAS item 1 (standing for a short time) score, LS Mean Difference: scale not given here
Details: MSA subjects; for OHSA composite score, LS Mean / OHSA composite score, Mean / OHSA composite score, Median / OHSA composite score, LS Mean Difference: change at week 22, end of 6-week double-blind period; for OHSA composite score, LS Mean Difference / OHDAS item 1 (standing for a short time) score, LS Mean Difference: vs placebo; for OHDAS item 1 (standing for a short time) score, LS Mean / OHDAS item 1 (standing for a short time) score, Mean / OHDAS item 1 (standing for a short time) score, Median / OHDAS item 1 (standing for a short time) score, LS Mean Difference: week 22, end of 6-week double-blind period
Method: The study consisted of a 16-week open-label (OL) treatment period with ampreloxetine followed by a 6-week double-blind randomized withdrawal period where subjects were administered either ampreloxetine or placebo.
Eligible subjects were either (i) completers of the study of Example 6 (“Completers Group”), or (ii) symptomatic nOH subjects meeting all applicable study inclusion criteria and none of the applicable exclusion criteria (“De Novo Group”).
A 4-week screening period applied to the De Novo Group only and the Screening visit was conducted in clinic for all De Novo Group subjects.
A total of 203 subjects entered this study (170 subjects from Example 6 (85 from the ampreloxetine group and 85 from the placebo group) and 33 de novo subjects). During the OL period, 55 subjects discontinued treatment. At 16 weeks, 64 subjects were randomized to the ampreloxetine group (6 subjects discontinued the study) and 64 subjects were randomized to the placebo group (3 subjects discontinued the study). A total of 119 subjects completed the study. Of the 128 subjects entering the randomized period, 40 subjects had MSA (31%); 68 subjects had PD (53%); and 20 subjects had PAF (16%) (in each category, the subjects were split equally between ampreloxetine and placebo).
Beginning on Day 2, subjects received a single dose of 10 mg ampreloxetine once daily (QD) and continued thereafter for the 16-week duration of the OL treatment period. Following this 16-week OL treatment period, subjects were randomized to either continue on the active treatment or placebo (“PBO”) for a period of 6 weeks.
Subjects enrolled into the OL period of the study had visits scheduled for Day 15, Day 29, and every 4 weeks thereafter for assessments as outlined in the Schedule of Study Procedures. […] Those subjects not meeting this continuation criterion were discontinued and underwent an end of study visit. The end of study visit was completed within 2 weeks from the date of the last dose.
Following the completion of a total of 16 weeks OL treatment with ampreloxetine (V6), subjects were assessed for randomization in a 1:1 manner. Eligible subjects received 6 weeks of double-blind treatment of ampreloxetine or PBO once daily. Only subjects with OHSA #1 score of ≤7 were eligible for randomization for the double-blind treatment period.
Exploratory assessments included: orthostatic standing test; NMSS; EQ-5D-5L; HADS; and BSFC-s. For subjects with PD, exploratory assessments included: Unified Parkinson's Disease Rating Scale (UPDRS); and Parkinson's Disease Questionaire-8 (PDQ-8). For subjects with MSA, exploratory assessments included: Unified Multiple System Atrophy Rating Scale (UMSARS); and Composite Autonomic Symptom Score-31 (COMPASS-31).
The secondary endpoints included: • (a) Change from baseline in OHSA #1 at Week 6 post randomization (V9, D155); • (b) Change from baseline in OHSA composite score at Week 6 post randomization (V9, D155); • (c) Change from baseline in OHDAS composite score at Week 6 post randomization (V9, D155); • (d) Change from baseline in PGI-S at Week 6 post randomization (V9, D155); • (e) Change from baseline in percentage of time spent in standing position as measured by a wearable device at Week 6 post randomization (V9, D155); and • (f) Change from baseline in average number of steps taken as measured by a wearable device at Week 6 post randomization (V9, D155).

## Fc1cc(F)c(OCc2ccccc2C2CCNCC2)c(F)c1 [Ampreloxetine, 4-[2-(2,4,6-trifluorophenoxymethyl)phenyl]piperidine]
<65 Years
  OHSA composite score, LS Mean: 0.55
  OHSA composite score, Mean: 0.8
  OHSA composite score, Median: 0.4
  OHSA composite score, LS Mean Difference: −1.09
  OHDAS item 1 (standing for a short time) score, LS Mean: −0.5
  OHDAS item 1 (standing for a short time) score, Mean: 0.0
  OHDAS item 1 (standing for a short time) score, Median: 0.0
  OHDAS item 1 (standing for a short time) score, LS Mean Difference: −2.9
>=65 Years
  OHSA composite score, LS Mean: −0.60
  OHSA composite score, Mean: −0.75
  OHSA composite score, Median: −0.70
  OHSA composite score, LS Mean Difference: −2.17
  OHDAS item 1 (standing for a short time) score, LS Mean: −0.4
  OHDAS item 1 (standing for a short time) score, Mean: −0.3
  OHDAS item 1 (standing for a short time) score, Median: 0.0
  OHDAS item 1 (standing for a short time) score, LS Mean Difference: −1.0
Female
  OHSA composite score, LS Mean: 0.2078
  OHSA composite score, Mean: 0.23
  OHSA composite score, Median: 0.00
  OHSA composite score, LS Mean Difference: −1.3996
  OHDAS item 1 (standing for a short time) score, LS Mean: 0.2
  OHDAS item 1 (standing for a short time) score, Mean: 0.3
  OHDAS item 1 (standing for a short time) score, Median: 0.0
  OHDAS item 1 (standing for a short time) score, LS Mean Difference: −1.0
MSA diagnosis <1.3 years
  OHSA composite score, LS Mean: 0.73
  OHSA composite score, Mean: 0.67
  OHSA composite score, Median: 0.70
  OHSA composite score, LS Mean Difference: −1.24
  OHDAS item 1 (standing for a short time) score, LS Mean: 0.7
  OHDAS item 1 (standing for a short time) score, Mean: 0.1
  OHDAS item 1 (standing for a short time) score, Median: 0.0
  OHDAS item 1 (standing for a short time) score, LS Mean Difference: −2.7
MSA diagnosis >=1.3 years
  OHSA composite score, LS Mean: −0.67
  OHSA composite score, Mean: −0.64
  OHSA composite score, Median: −0.10
  OHSA composite score, LS Mean Difference: −1.78
  OHDAS item 1 (standing for a short time) score, LS Mean: −0.6
  OHDAS item 1 (standing for a short time) score, Mean: −0.4
  OHDAS item 1 (standing for a short time) score, Median: 0.0
  OHDAS item 1 (standing for a short time) score, LS Mean Difference: −0.7
MSA-C
  OHSA composite score, LS Mean: 1.10
  OHSA composite score, Mean: 0.76
  OHSA composite score, Median: 0.50
  OHSA composite score, LS Mean Difference: −0.68
  OHDAS item 1 (standing for a short time) score, LS Mean: 0.9
  OHDAS item 1 (standing for a short time) score, Mean: 0.7
  OHDAS item 1 (standing for a short time) score, Median: 0.0
  OHDAS item 1 (standing for a short time) score, LS Mean Difference: −1.0
MSA-P
  OHSA composite score, LS Mean: −0.50
  OHSA composite score, Mean: −0.39
  OHSA composite score, Median: 0.05
  OHSA composite score, LS Mean Difference: −1.72
  OHDAS item 1 (standing for a short time) score, LS Mean: −1.2
  OHDAS item 1 (standing for a short time) score, Mean: −0.7
  OHDAS item 1 (standing for a short time) score, Median: 0.0
  OHDAS item 1 (standing for a short time) score, LS Mean Difference: −2.7
Male
  OHSA composite score, LS Mean: −0.3923
  OHSA composite score, Mean: −0.46
  OHSA composite score, Median: 0.20
  OHSA composite score, LS Mean Difference: −1.8762
  OHDAS item 1 (standing for a short time) score, LS Mean: −1.2
  OHDAS item 1 (standing for a short time) score, Mean: −0.8
  OHDAS item 1 (standing for a short time) score, Median: 0.0
  OHDAS item 1 (standing for a short time) score, LS Mean Difference: −2.8
Overall
  OHSA composite score, Mean: −0.05
  OHSA composite score, Median: 0.05
  OHSA composite score, LS Mean Difference: −1.57
  OHDAS item 1 (standing for a short time) score, LS Mean: −0.4
  OHDAS item 1 (standing for a short time) score, Mean: −0.2
  OHDAS item 1 (standing for a short time) score, Median: 0.0
  OHDAS item 1 (standing for a short time) score, LS Mean Difference: −2.0
Overall, placebo 1.54, p=0.0056
  OHSA composite score, LS Mean: −0.03
Pre treatment baseline OHSA1 <7
  OHSA composite score, LS Mean: −0.22
